Like-named read-outs stand apart in the source and are kept apart here.
Tests used:
[1] = in vivo pharmacokinetics in male Sprague-Dawley rats, plasma and brain; conditions: rat; for Kp at 1.5 h: brain, T = 1.5 h, read-out: Brain/Plasma ratio (T = 1.5 h); for Kp at 1.5 h / AUC(0-inf): po
Description: PXT002331 and PXT001858 were administered per os (p.o.) at 10 mg/kg to male Sprague-Dawley rats. Volume of administration was 10 ml/kg. In parallel, PXT002331 was also administered intravenously (i.v.) at 1 mg/kg, with a volume of administration of 2 ml/kg. Blood samples (200 μl) were collected at time ranging from 15 minutes to 24 hours for the p.o. administration and from 5 minutes to 24 hours for the i.v. administration in ice-cold tubes containing 0.2% K2EDTA. Tubes were centrifuged at 10,000 rpm for 5 minutes at 4° C. The plasma (supernatant) was separated in another tube and stored at −80° C. until analysis. Two groups of 3 animals were used for each route of administration: in one group, blood samples were collected to determine the kinetics of plasma exposure over a 24-hour period, and in the second group, blood and brain were collected at one terminal time point (0.5, 1.0, 1.5, 2.0, 4.0 hours) to determine the kinetics of brain exposure and brain/plasma ratio.
The respective parent compound (free base) was analysed in plasma samples and in brain homogenate using a LC-MS/MS method. Concentrations are expressed in ng/ml of plasma or in ng/g of brain tissue.
(§1) Despite their similar oral absorption, PXT002331 has a higher brain/plasma ratio (6.5 versus 2.0 at T=1.5 h; see FIG. 4) leading to a 3-fold improvement in the brain AUC when compared to PXT001858. A posteriori, one potential hypothesis might rely on the difference of phase II conjugation in the intestine and liver during oral absorption. […] Nonetheless, this difference observed in vitro cannot by itself explain the unexpected advantageous PK results obtained with PXT002331. The results obtained in these experiments are furthermore summarized in Tables 1 to 3 below and in FIGS. 1 to 4.

solubility in water = assay type: physicochemical; conditions: as hydrochloride salt
plasma protein binding = assay type: in vitro ADME; conditions: read-out: plasma protein binding, free fraction
human mGluR4 = human mGluR4 (Homo sapiens, UniProt Q14833); experiment: calcium assay for agonistic and/or positive allosteric modulator activity on human mGluR4; assay type: cell-based
Description: The compound of formula (I) according to the invention (i.e., PXT002331) was tested for its agonistic and/or positive allosteric modulator activity on human mGluR4 using the calcium assay described in Example 171 of WO 2011/051478.

[2] = tested on: UGT (UDP-Glucuronosyl transferase); experiment: in vitro glucuronidation in rat liver microsomes; assay type: in vitro ADME; conditions: in vitro in the presence of UGT
Description: as §1

CaCo-2 = experiment: intestinal absorption CaCo-2 (A-B, pgp); assay type: in vitro ADME
Description: (§2) The in vitro ADME profile of PXT002331 was also very similar with reference to phase I metabolic stability: CL (h/r): 55/101 μl/min/mg protein and intestinal absorption: CaCo-2 (A-B, pgp): 4.11.0.10-6 cm/s, no efflux.

[3] = tested on: MPTP macaque model of Parkinson's disease; experiment: MPTP macaque model of Parkinson's disease; assay type: in vivo, Macaca fascicularis
Description: FIGS. 5A-F: Evaluation of the anti-parkinsonian efficacy of PXT002331 in the 1-methyl-4-phenyl-1,2,3,6-tetrahydropyridine (MPTP) macaque model of Parkinson's disease (see Example 3). (A) PXT002331 as a stand-alone treatment; oral administration twice a day during 4 days, assessment of parkinsonian scores at day 4; data are mean+s.e.m. over 2 hours observation (n=7 per group; 1 of the 8 monkeys initially used was excluded); “Veh”=vehicle; “LD opt”=L-dopa optimal dose”; *=P<0.05 vs Veh; ***=P<0.001 vs Veh; statistical analysis: Friedman followed by Dunn's. (B) Combined treatment using PXT002331 (25 mg/kg)+low dose of L-dopa (4-9 mg/kg)−parkinsonism time course; oral administration twice a day during 4 days, assessment at day #4; L-dopa optimal dose (“LDopt”): >20 mg/kg; L-dopa suboptimal dose (“LDso”): 4-9 mg/kg; combined administration of L-dopa (suboptimal dose) and PXT002331: twice a day/4 days. […] (D) Combined treatment using PXT002331+low dose of L-dopa−dose-response evaluation for different doses of PXT002331; assessment of parkinsonian scores at day 4; “Veh”=vehicle; “low LD”=low dose of L-dopa; “LD opt”=optimal dose of L-dopa; *=P<0.05 vs low LD; statistical analysis: non-parametric one-way repeated, measures ANOVA (Friedman's test), followed by Dunn's multiple comparison; N=7. (E) Computerized locomotor activity in early-stage PD monkey model for PXT002331 in combination with L-dopa (low dose or optimal dose) upon oral administration; *=P<0.05 vs vehicle; **=P<0.01 vs vehicle; ***=P<0.001 vs vehicle; statistical analysis: Friedman followed by Dunnett's; N=5 (6 monkeys/1 excluded). (F) Combined treatment using PXT002331+optimal dose of L-dopa−disability score and dyskinesia score. The anti-parkinsonian efficacy of the compound of formula (I) according to the present invention (i.e., PXT002331) was evaluated in the 1-methyl-4-phenyl-1,2,3,6-tetrahydropyridine (MPTP) macaque model of Parkinson's disease (using macaques of the species Macaca fascicularis), which reproduces most of the clinical and pathological hallmarks of Parkinson's disease and is considered a “gold standard” (see Porras G et al., Cold Spring Harb Perspect Med., 2(3):a009308, 2012 and references cited therein for a general description of the MPTP model). […] In this experiment, PXT002331 was orally administered twice a day during a period of 4 days, and the parkinsonian score was assessed at day 4 over 2 hours of observation (data are mean values+standard error of the mean (s.e.m.); n=7 monkeys per group). The anti-parkinsonian efficacy of PXT002331 (25 mg/kg) was further evaluated in combination with low (suboptimal) doses of L-dopa (levodopa; 4-9 mg/kg) (see FIGS. 5B and 5C). Doses were orally administered twice a day during 4 days, and assessment of parkinsonian scores took place at day 4 (between 1 and 2 h after L-dopa administration, i.e., between 2 and 3 h after PXT002331 administration). […] The results of a dose-response evaluation of the combination of PXT002331 (at doses from 2 mg/kg to 100 mg/kg) with L-dopa (low dose) are shown in FIG. 5D (the assessment of parkinsonian scores took place at day 4). […] In this experiment, each monkey was equipped with a detector of movements and signals were collected with 24 light beams and a video track recorder in order to descriminate all types of movements. The locomotor activity was measured during 1 hour.

[4] = phase I metabolic stability, CL (h); assay type: in vitro ADME; conditions: human
Description: as §2

[5] = phase I metabolic stability, CL (r); assay type: in vitro ADME; conditions: rat
Description: as §2

[6] = male, Sprague-Dawley, 10 mg/kg p.o.
[7] = male, Sprague-Dawley, plasma, 10 mg/kg p.o.

human mGluR4, sequence (Q14833 33-912): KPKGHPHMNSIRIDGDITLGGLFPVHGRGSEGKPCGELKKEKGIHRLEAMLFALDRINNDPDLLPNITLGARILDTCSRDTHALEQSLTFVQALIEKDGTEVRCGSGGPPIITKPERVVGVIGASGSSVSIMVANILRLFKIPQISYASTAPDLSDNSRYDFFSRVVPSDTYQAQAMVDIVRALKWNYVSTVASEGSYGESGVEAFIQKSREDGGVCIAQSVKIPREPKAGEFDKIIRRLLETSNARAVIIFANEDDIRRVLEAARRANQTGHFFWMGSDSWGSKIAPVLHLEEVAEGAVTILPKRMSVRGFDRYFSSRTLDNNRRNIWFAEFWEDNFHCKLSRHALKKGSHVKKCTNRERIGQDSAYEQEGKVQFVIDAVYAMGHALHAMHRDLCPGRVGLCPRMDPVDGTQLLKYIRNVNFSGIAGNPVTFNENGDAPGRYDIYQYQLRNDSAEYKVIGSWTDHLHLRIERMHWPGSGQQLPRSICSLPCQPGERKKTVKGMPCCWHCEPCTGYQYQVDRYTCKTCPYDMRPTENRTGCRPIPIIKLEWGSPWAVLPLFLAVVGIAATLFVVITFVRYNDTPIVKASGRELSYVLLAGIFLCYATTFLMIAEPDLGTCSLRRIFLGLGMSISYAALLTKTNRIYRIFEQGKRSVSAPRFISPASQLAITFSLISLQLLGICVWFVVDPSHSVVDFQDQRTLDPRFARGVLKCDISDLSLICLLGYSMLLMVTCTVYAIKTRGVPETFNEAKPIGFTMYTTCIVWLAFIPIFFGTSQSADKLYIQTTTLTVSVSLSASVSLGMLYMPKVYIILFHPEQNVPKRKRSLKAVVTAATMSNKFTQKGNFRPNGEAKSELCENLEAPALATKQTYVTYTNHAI

## O/N=c1\cc(-c2cc3sccc3cn2)oc2ccc(OCCN3CCOCC3)cc12 [PXT001858, reference compound]
[1]; [6]
  Kp at 1.5 h: 2
[1]; [7]
  AUC(0-inf): 394 ng·h/mL
[1]; 10 mg/kg p.o.
  Brain AUC inf: 838 ng·h/g
  Cmax (Brain): 521 ng/G tissue
Solubility in water
  solubility: > 10000 µg/mL
Plasma protein binding
  fraction unbound: < 0.01
Human mGluR4; read-out: pEC50 on human mGluR4 (converted)
  EC50: 36.3 nM

## ON=c1cc(-c2cc3sccc3cn2)oc2ccc(CCCN3CCOCC3)cc12 [PXT002331, 6-(3-morpholin-4-yl-propyl)-2-(thieno[3,2-c]pyridin-6-yl)-4H-chromen-4-one oxime]
[2]
  level of glucuronidation compared to PXT001858: much lower level of glucuronidation
[1]; [6]
  Kp at 1.5 h: 6.5
[1]; male, Sprague-Dawley, plasma, oral, 10 mg/kg p.o. vs 1 mg/kg i.v.
  bioavailability: 39%
[1]; [7]
  AUC(0-inf): 432 ng·h/mL
[1]; 10 mg/kg p.o.
  Brain AUC inf: 2713 ng·h/g
  Cmax (Brain): 818 ng/G tissue
  improvement in brain AUC compared to PXT001858: 3 fold
  plasma Cmax relative to PXT001858: 0.7 fold
  plasma exposure AUC relative to PXT001858: 1.1 fold
CaCo-2
  CaCo-2 efflux (pgp): no efflux
[3]; 25 mg/kg p.o. + L-dopa 4-9 mg/kg, twice a day 4 days, day 4
  parkinsonian score, combined with suboptimal dose of L-dopa vs L-dopa (suboptimal dose) alone: considerable improvement in parkinsonian score
[3]; 25 mg/kg p.o., early stage PD monkey model, measured during 1 hour
  locomotor activity in combination with low or optimal dose of L-dopa: significant improvement in locomotor activity
[3]; 25 to 100 mg/kg
  induction of dyskinesia in combination with L-dopa (optimal dose): without inducing dyskinesia
[3]; increasing doses, 25 to 100 mg/kg
  disability score in combination with L-dopa (optimal dose): improvement in the disability score
[3]; p.o. twice a day for 4 days, score at day 4 over 2 h
  anti-parkinsonian activity (parkinsonian score), stand-alone treatment: potent anti-parkinsonian activity
Solubility in water
  solubility: > 10000 µg/mL
[4]
  microsomal CLint: 55 µL/min/mg
Plasma protein binding
  fraction unbound: < 0.01
Human mGluR4; read-out: EC50 corresponding to pEC50 (converted)
  EC50: ~76 nM
[5]
  microsomal CLint: 101 µL/min/mg
